ChEMBL document CHEMBL1128882, “Novel lignan derivatives as selective inhibitors of DNA topoisomerase II” (1995)
Calls of active or inactive are those of the source. No cut-off for these calls is given here.

Tests used:
[1] = tested on: KB; assay: In vitro cellular protein-DNA complex formation at a concentration of 50 uM; type: functional, Homo sapiens
[2] = molecular target: T1, DNA topoisomerase 1 (Homo sapiens) (UniProt P11387); assay: In vitro inhibition of DNA topoisomerase I activity (ATP-independent DNA relaxation) at a concentration of 50 uM; no activity
T1 sequence (whole entry): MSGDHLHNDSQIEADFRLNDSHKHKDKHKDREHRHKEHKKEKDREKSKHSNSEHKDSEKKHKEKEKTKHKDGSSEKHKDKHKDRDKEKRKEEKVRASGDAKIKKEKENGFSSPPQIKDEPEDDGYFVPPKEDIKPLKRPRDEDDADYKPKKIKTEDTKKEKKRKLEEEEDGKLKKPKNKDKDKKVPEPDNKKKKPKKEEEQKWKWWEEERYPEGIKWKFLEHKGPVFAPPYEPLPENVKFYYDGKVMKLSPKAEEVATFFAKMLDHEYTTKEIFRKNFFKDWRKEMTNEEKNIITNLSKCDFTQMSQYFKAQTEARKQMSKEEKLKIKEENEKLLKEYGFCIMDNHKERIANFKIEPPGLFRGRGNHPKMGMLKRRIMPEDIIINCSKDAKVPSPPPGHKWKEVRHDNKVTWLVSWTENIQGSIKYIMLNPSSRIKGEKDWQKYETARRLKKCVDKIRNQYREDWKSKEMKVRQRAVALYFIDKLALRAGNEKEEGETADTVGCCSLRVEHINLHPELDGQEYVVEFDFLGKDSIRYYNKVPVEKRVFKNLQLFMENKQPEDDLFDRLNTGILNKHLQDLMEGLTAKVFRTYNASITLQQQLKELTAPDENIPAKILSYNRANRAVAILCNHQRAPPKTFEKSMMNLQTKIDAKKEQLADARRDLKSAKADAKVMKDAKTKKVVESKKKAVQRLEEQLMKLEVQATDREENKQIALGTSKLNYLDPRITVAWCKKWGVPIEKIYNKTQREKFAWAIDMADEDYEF

[3] = tested on: KB; assay: In vitro topoisomerase II -DNA complex formation at a concentration of 50 uM; type: functional, Homo sapiens
[4] = tested on: KB; assay: In vitro topoisomerase II -DNA complex formation at a concentration of 100 uM; no activity; type: functional, cell-based; conditions: Homo sapiens
[5] = tested on: KB; assay: In vitro topoisomerase II -DNA complex formation at a concentration of 10 uM; no activity; type: functional, cell-based; conditions: Homo sapiens
[6] = tested on: KB; assay: In vitro topoisomerase II -DNA complex formation at a concentration of 50 uM; no activity; type: functional, cell-based; conditions: Homo sapiens
[7] = tested on: KB; assay: In vitro topoisomerase II -DNA complex formation at a concentration of 1 uM; no activity; type: functional, cell-based; conditions: Homo sapiens
[8] = molecular target: DNA topoisomerase 2-beta (Homo sapiens) (UniProt Q02880); assay: In vitro inhibition of DNA topoisomerase II activity (DNA unknotting) at a concentration of 50 uM
DNA topoisomerase 2-beta (Homo sapiens), sequence (Q02880 whole entry): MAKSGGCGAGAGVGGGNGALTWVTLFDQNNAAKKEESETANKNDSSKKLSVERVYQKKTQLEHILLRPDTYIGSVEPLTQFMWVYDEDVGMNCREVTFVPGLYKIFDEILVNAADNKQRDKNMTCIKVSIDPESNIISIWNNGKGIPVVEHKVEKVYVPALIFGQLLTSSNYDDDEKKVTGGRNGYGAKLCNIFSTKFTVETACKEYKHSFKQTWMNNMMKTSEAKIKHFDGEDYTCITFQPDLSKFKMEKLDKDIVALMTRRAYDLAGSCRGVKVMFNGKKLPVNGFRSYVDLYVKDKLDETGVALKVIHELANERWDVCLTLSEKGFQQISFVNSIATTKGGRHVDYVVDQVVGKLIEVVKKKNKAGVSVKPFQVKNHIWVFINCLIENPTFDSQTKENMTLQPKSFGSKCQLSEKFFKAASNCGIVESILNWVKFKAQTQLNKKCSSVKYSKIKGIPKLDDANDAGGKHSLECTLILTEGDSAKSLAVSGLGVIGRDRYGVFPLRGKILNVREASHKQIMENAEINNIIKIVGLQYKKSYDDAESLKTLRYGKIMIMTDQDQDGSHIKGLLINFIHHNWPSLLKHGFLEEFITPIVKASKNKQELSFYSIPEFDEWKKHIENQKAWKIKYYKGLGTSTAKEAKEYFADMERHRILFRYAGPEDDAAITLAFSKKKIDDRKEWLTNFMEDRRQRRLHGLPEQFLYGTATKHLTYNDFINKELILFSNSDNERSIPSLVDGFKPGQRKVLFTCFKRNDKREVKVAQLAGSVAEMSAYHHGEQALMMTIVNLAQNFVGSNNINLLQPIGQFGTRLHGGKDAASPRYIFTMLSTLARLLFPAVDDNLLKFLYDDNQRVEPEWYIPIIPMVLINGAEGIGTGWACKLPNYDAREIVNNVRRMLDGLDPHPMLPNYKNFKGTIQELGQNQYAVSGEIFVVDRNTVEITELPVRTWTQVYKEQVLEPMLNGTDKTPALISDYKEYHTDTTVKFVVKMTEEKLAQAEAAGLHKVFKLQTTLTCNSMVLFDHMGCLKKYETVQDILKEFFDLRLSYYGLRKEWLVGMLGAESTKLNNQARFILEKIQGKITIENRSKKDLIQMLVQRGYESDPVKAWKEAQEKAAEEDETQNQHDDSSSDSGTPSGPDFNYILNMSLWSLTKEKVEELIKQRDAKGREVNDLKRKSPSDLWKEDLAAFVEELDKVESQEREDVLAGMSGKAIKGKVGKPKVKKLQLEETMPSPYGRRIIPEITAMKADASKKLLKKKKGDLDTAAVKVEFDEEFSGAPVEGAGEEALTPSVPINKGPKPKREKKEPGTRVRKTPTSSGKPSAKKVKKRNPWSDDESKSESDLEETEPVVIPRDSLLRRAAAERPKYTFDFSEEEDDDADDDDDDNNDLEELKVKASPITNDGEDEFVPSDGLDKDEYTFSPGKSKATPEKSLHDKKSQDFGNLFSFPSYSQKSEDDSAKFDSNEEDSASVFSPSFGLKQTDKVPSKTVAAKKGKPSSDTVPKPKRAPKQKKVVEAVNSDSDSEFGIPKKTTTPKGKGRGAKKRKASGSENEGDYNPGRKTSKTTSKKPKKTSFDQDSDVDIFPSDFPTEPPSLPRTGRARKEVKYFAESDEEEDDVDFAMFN

[9] = tested on: KB; assay: In vitro cellular protein-DNA complex formation at a concentration of 50 uM; no activity; type: functional, cell-based; conditions: Homo sapiens
[10] = molecular target: T1, DNA topoisomerase 1 (Homo sapiens); assay: In vitro inhibition of DNA topoisomerase I activity (ATP-independent DNA relaxation) at a concentration of 50 uM

COc1cc([C@@H]2c3cc4c(cc3[C@@H](O[C@@H]3O[C@@H]5CO[C@@H](C)O[C@H]5[C@H](O)[C@H]3O)[C@H]3COC(=O)[C@H]23)OCO4)cc(OC)c1O [ETOPOSIDE]
Complex formation [1]: 100%
inhibition [2]: inactive
Complex formation [3]: 100%

O=C(O[C@@H]1C[C@](O)(C(=O)O)C[C@@H](O)[C@H]1O)C1=Cc2cc(O)c(O)cc2[C@@H](c2ccc(O)c(O)c2)[C@@H]1C(=O)O[C@@H]1C[C@](O)(C(=O)O)C[C@@H](O)[C@H]1O
inhibition [2]: inactive
Complex formation [4]: No activity
Complex formation [5]: No activity
Complex formation [6]: No activity
Complex formation [7]: No activity
inhibition [8]: 100%
Complex formation [9]: No activity

O=C(O[C@@H]1C[C@](O)(C(=O)O)C[C@@H](O)[C@H]1O)C1=Cc2cc(O)c(O)cc2[C@H](c2ccc(O)c(O)c2)[C@H]1C(=O)O[C@@H]1C[C@](O)(C(=O)O)C[C@@H](O)[C@H]1O
inhibition [2]: inactive
Complex formation [4]: No activity
Complex formation [5]: No activity
Complex formation [6]: No activity
Complex formation [7]: No activity
inhibition [8]: 100%
Complex formation [9]: No activity

O=C(O[C@H](Cc1ccc(O)c(O)c1)C(=O)O)C1=Cc2cc(O)c(O)cc2[C@@H](c2ccc(O)c(O)c2)[C@@H]1C(=O)O[C@H](Cc1ccc(O)c(O)c1)C(=O)O
inhibition [10]: 100%
Complex formation [6]: No activity
inhibition [8]: 100%
Complex formation [9]: No activity

O=C1OC(c2ccc(O)c(O)c2)C2C(=O)OC(c3ccc(O)c(O)c3)C12 (stereo not drawn)
inhibition [10]: 100%
inhibition [8]: 100%

O=C(O[C@H](Cc1ccc(O)c(O)c1)C(=O)O)C1=Cc2cc(O)c(O)cc2[C@H](c2ccc(O)c(O)c2)[C@H]1C(=O)O[C@H](Cc1ccc(O)c(O)c1)C(=O)O
inhibition [10]: 100%
Complex formation [6]: No activity
inhibition [8]: 100%
Complex formation [9]: No activity

O=C(O)C1=Cc2cc(O)c(O)cc2[C@@H](c2ccc(O)c(O)c2)[C@@H]1C(=O)O
inhibition [10]: 100%
inhibition [8]: 100%

COC(=O)C1=Cc2cc(O)c(O)cc2[C@@H](c2ccc(O)c(O)c2)[C@@H]1C(=O)OC
inhibition [2]: inactive
Complex formation [6]: No activity
inhibition [8]: 100%
Complex formation [9]: No activity
